Usually IC50 stands for the concentration that gives 50% inhibition. A word on the kinact/KI: it is the maximal inactivation rate divided by the concentration that gives half of it. In general, Ki refers to the dissociation constant of the complex between target and ligand, obtained from inhibition or displacement. Read a high Ki as a looser hold on the target. By Kd is commonly meant a measure of binding affinity in units of concentration. Read a high Kd as lower affinity.

Each structure is given as a SMILES string. Values joined by “and” are separate entries in the source; they are usually repeats but may differ in a detail not shown here. Equal entries are not always repeated. Where two headings read alike, the source gives them in different places. Where a SMILES comes first, the peptide text is derived from it. Bridges are numbered along the chain shown (N, C = ends). [ ]: non-standard residue; d: D form. Orn(fluoroacetimidoyl) = N=C(CF)NCCC[C@H](N)C(=O)O; Orn(acetimidoyl) = CC(=N)NCCC[C@H](N)C(=O)O; Cit = NC(=O)NCCC[C@H](N)C(=O)O

Experiment [1] has as its target T1, PADI4 (Homo sapiens, UniProt Q9UM07).
T1 construct: His6; made in house
Kind of experiment: COLDER inhibition assay, BAEE substrate, with or without 1 h preincubation. It counts as biochemical. The settings on record: for IC50: COLDER; for remaining activity at 0.003 µM: peptide 0.003 µM; for remaining activity at 0.01 µM: peptide 0.01 µM; for remaining activity at 0.03 µM: peptide 0.03 µM; for remaining activity at 0.1 µM: peptide 0.1 µM; for remaining activity at 0.3 µM: peptide 0.3 µM; for remaining activity at 1 µM: peptide 1 µM; for remaining activity at 3 µM: peptide 3 µM; for remaining activity at 10 µM: peptide 10 µM; for remaining activity at 30 µM: peptide 30 µM; for remaining activity at 50 µM: peptide 50 µM. As for the experimental part:
PADI4 citrullination activity was analysed using the COLDER assay in 96-well plates. Peptide dilutions were prepared from a 500 µM stock, to give a 10 times concentrated dilution series (500 µM, 300 µM, 100 µM, 30 µM, 10 µM, 3 µM, 1 µM, 0.3 µM, 0.1 µM and 0.03 µM) in COLDER buffer (50 mM HEPES, 150 mM NaCl and 2 mM DTT, pH 7.5) containing 1% DMSO. In triplicate, each was diluted 10-fold further when mixed with 50 nM His-PADI4, 0.6 mg/mL BSA and 10 mM CaCl2, in COLDER buffer. With or without one hour of incubation, 10 mM N^α-Benzoyl-L-arginine ethyl ester hydrochloride (BAEE, Merck) was added to initiate the reaction (50 µL final volume). After 30 min at rt, EDTA (50 mM final concentration) was used to quench the reaction and 200 µL of COLDER solution containing 20 mM Diacetyl monoxime/2,3-butanedione monoxime (Merck), 0.5 mM Thiosemicarbazide (Acros Organics), 2.25 M H3PO4, 4.5 M H2SO4 and 1.5 mM NH4Fe(SO4)2.12H2O was added to each well. Samples were incubated for 20 min at 95 °C before measuring absorbance at 540 nm on a CLARIOstar Plus (BMG LABTECH). Data analysis was performed with GraphPad Prism. Data are presented as the average ± standard error of the mean from at least two independent replicates.

The target of experiment [2] is T1, PADI4. Briefly: Surface plasmon resonance (SPR), single cycle kinetics. Conditions: for Ki: k-1/k+1; for Kd: reversible binding, 1:1 binding model. It counts as binding. The protocol:
S8. Surface plasmon resonance (SPR)
Using a Biacore S200 (GE Healthcare), biotinylated His-PADI4 (80 nM) was immobilised on a CAP chip (GE Healthcare) to a response unit of approx. 3000. At 25 °C, single cycle kinetics mode was used with 5 samples of a 3-fold dilution series of peptides PADI4_3_H4(2), cP4_2, […]
mM HEPES, 150 mM NaCl, 10 mM CaCl2, 0.05% Tween-20, 0.1% DMSO (pH 7.5). After each cycle, regeneration of the chip was carried out as per the manufacturer’s protocol. Data were analysed with the Biacore S200 Evaluation Software, each in triplicate. Warhead-containing peptides were analysed using the two-state reaction model, with the rate constant for the reverse second step (k-2) set to zero. The equilibrium constant of the reversible binding step, Ki, was calculated as the ratio of k-1/k+1 and the rate constant of the irreversible chemical step, kinact, as k+2. The Arg4, Cit4 and Me4 peptides were fitted using a 1:1 binding model. […]
In general terms: SPR reads the build-up and loss of mass on a sensor chip optically.

[3] abbreviates: 1 h preincubation of peptide and PADI4, 10 mM CaCl2, read-out: IC50 Values 1 h preincubation.
[4] abbreviates: no preincubation of peptide and PADI4, 10 mM CaCl2, read-out: IC50 Values 0 h preincubation.
The mark [5] stands for this setting: T=0, values starred, read-out: PADI4 activity normalised to 0.1% DMSO.
The mark [6] stands for this setting: T=0, read-out: PADI4 activity normalised to 0.1% DMSO.
The mark [7] stands for this setting: T=1, read-out: PADI4 activity normalised to 0.1% DMSO.
The mark [8] stands for this setting: each replicate, read-out: k2 / kinact.
Setting [9] is: two-state reaction model, k+2, read-out: SPR kinact (converted).
Setting [10] is: no preincubation, read-out: PADI4 activity, normalised (Figure 4b dose-response).
[11] abbreviates: 1 h, T=1 (1 h preincubation), read-out: PADI4 activity, dose-response data of Figure S15 (individual replicates).
[12] abbreviates: T=0 (no preincubation), read-out: PADI4 activity, dose-response data of Figure S15 (individual replicates).

T1 sequence (Q9UM07 whole entry): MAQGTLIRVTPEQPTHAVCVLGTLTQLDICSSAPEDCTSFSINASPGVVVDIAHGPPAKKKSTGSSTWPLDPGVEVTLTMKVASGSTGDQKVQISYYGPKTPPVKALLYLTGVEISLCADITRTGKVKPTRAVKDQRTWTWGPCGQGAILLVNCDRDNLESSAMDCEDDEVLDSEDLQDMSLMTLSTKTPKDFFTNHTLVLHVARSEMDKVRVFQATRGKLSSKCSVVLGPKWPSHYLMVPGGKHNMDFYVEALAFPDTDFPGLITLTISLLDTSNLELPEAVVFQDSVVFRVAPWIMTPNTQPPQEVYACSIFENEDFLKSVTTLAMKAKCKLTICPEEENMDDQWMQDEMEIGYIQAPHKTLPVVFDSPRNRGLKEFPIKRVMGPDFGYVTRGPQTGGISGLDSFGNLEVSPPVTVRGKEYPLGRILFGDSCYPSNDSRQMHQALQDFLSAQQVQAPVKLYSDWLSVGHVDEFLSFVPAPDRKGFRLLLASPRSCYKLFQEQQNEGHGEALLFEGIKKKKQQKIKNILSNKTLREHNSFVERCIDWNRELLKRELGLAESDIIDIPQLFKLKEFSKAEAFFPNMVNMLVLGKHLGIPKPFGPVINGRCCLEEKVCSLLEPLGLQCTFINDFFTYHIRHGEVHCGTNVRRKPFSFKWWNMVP

Turning to `CC[C@H](C)[C@@H]1NC(=O)[C@@H](Cc2ccc(O)cc2)NC(=O)CSC[C@@H](C(=O)NCC(N)=O)NC(=O)[C@H](CO)NC(=O)[C@H](CCCNC(=N)CF)NC(=O)[C@H](CC(=O)O)NC(=O)[C@H](CCCNC(=N)CF)NC(=O)[C@H](CC(C)C)NC(=O)CNC(=O)[C@H](Cc2c[nH]c3ccccc23)NC1=O` [cP4_2, yIWGL(2)D(2)SCG] ({CH2CO}-[dY]IWGL[Orn(fluoroacetimidoyl)]D[Orn(fluoroacetimidoyl)]SCG-NH2; thioether N-10), on PADI4 [1] (setting [3]), the IC50 is 870 ± 60 nM. Moreover, the 50% inhibitory concentration (IC50) on PADI4 [1] (setting [4]) is above 50000 nM. Moreover, on PADI4 [1] (setting [5]), the remaining activity at 0.003 µM was 107% and the remaining activity at 0.01 µM turned out to be 107%. In addition, at PADI4 [1] (setting [6]), the remaining activity at 0.03 µM came out at 107%, the remaining activity at 0.1 µM stood at 108%, the remaining activity at 0.3 µM amounted to 106% and the remaining activity at 1 µM is 107%. In addition, at PADI4 [1] (setting [6]), the remaining activity at 3 µM was determined as 105%, the remaining activity at 10 µM stood at 101% and the remaining activity at 30 µM is 80.9%. Moreover, at PADI4 [1] (setting [7]), the remaining activity at 0.1 µM came out at 93.3%, the remaining activity at 0.3 µM was determined as 74.9%, the remaining activity at 1 µM stood at 42.9% and the remaining activity at 3 µM turned out to be 7.63%. For the same compound, the remaining activity at 10 µM on PADI4 [1] (setting [7]) amounted to 3.92%. The remaining activity at 50 µM at PADI4 [1] (T=0 (no preincubation), read-out: PADI4 activity normalised to 0.1% DMSO) worked out at 64.4%. Further, the kinact/KI at PADI4 [2] was 1530 M⁻¹ s⁻¹. Further, the k2 / kinact on PADI4 [2] (each replicate) was 0.0026 s⁻¹ and 0.0019 s⁻¹. Further, the kinact at PADI4 [2] (setting [8]) is 0.0014 s⁻¹. Moreover, on PADI4 [2] (setting [9]), the kinact was 0.002 s⁻¹. Further, the Ki on PADI4 [2] (two-state reaction model) came out at 1300 ± 500 nM.

As to `CC(=N)NCCC[C@@H]1NC(=O)[C@H](CC(=O)O)NC(=O)[C@H](Cc2ccc(O)cc2)NC(=O)[C@H](CCCCN)NC(=O)[C@H](CO)NC(=O)[C@@H](Cc2ccc(O)cc2)NC(=O)CSC[C@@H](C(=O)NCC(N)=O)NC(=O)[C@H](CC(=O)O)NC(=O)[C@H](CCCNC(=N)N)NC(=O)[C@@H]2CCCN2C(=O)[C@H](CO)NC(=O)[C@H](CCCNC(=N)N)NC1=O` [Me4] ({CH2CO}-[dY]SKYD[Orn(acetimidoyl)]RSPRDCG-NH2; thioether N-12), the concentration for half-maximal inhibition (IC50) on PADI4 [1] (setting [4]) is above 20000 nM. Moreover, at PADI4 [1] (setting [10]), the remaining activity at 0.003 µM is 91%, the remaining activity at 0.01 µM was found to be 92.6%, the remaining activity at 0.03 µM came out at 96.4% and the remaining activity at 0.1 µM is 92.1%. Further, on PADI4 [1] (setting [10]), the remaining activity at 0.3 µM is 93.7%, the remaining activity at 1 µM amounted to 86.6%, the remaining activity at 3 µM was determined as 84.6% and the remaining activity at 30 µM turned out to be 41.5%. Also, the remaining activity at 50 µM on PADI4 [1] (setting [10]) is 25.9%. This compound also registered a Kd at PADI4 [2] of 1700 ± 400 nM.

Consider `CC[C@H](C)[C@@H]1NC(=O)[C@H](CCCNC(=N)N)NC(=O)[C@H](Cc2ccc(O)cc2)NC(=O)[C@H](CCCNC(=N)N)NC(=O)[C@H](CCC(=O)O)NC(=O)[C@H](CCCNC(=N)CF)NC(=O)[C@H](CC(N)=O)NC(=O)[C@H](CC(C)C)NC(=O)[C@@H](Cc2ccc(O)cc2)NC(=O)CSC[C@@H](C(=O)NCC(N)=O)NC(=O)[C@H](CO)NC1=O` [cP4_18] ({CH2CO}-[dY]LN[Orn(fluoroacetimidoyl)]ERYRISCG-NH2; thioether N-11), for which, at PADI4 [1] (setting [11]), the remaining activity at 0.003 µM came out at 101%, the remaining activity at 0.01 µM was determined as 99.7%, the remaining activity at 0.03 µM came to 95.4% and the remaining activity at 0.1 µM worked out at 77.6%. Besides, on PADI4 [1] (setting [11]), the remaining activity at 0.3 µM was determined as 35.4% and the remaining activity at 1 µM amounted to 10%. For the same compound, at PADI4 [1] (setting [3]), the half-inhibitory concentration (IC50) is 180 nM. Further, on PADI4 [1] (setting [12]), the remaining activity at 0.003 µM is 106%, the remaining activity at 0.01 µM turned out to be 108%, the remaining activity at 0.03 µM was 107% and the remaining activity at 0.1 µM is 110%. At PADI4 [1] (setting [12]), the remaining activity at 0.3 µM was found to be 107%, the remaining activity at 1 µM worked out at 102%, the remaining activity at 3 µM worked out at 94.6% and the remaining activity at 10 µM is 64.3%. Besides, on PADI4 [1] (setting [12]), the remaining activity at 30 µM is 31.1% and the remaining activity at 50 µM worked out at 21.4%. The k2 / kinact on PADI4 [2] (each replicate) is 0.0019 s⁻¹. Further, the kinact on PADI4 [2] (setting [8]) amounted to 0.0027 s⁻¹. In addition, the kinact at PADI4 [2] (setting [9]) was 0.00317 s⁻¹. This compound also registered an inhibitory constant (Ki) on PADI4 [2] (two-state reaction model) of 810 ± 80 nM.

Turning to `N=C(N)NCCC[C@@H]1NC(=O)[C@H](CCCNC(N)=O)NC(=O)[C@H](CC(=O)O)NC(=O)[C@H](Cc2ccc(O)cc2)NC(=O)[C@H](CCCCN)NC(=O)[C@H](CO)NC(=O)[C@@H](Cc2ccc(O)cc2)NC(=O)CSC[C@@H](C(=O)NCC(N)=O)NC(=O)[C@H](CC(=O)O)NC(=O)[C@H](CCCNC(=N)N)NC(=O)[C@@H]2CCCN2C(=O)[C@H](CO)NC1=O` [Cit4] ({CH2CO}-[dY]SKYD[Cit]RSPRDCG-NH2; thioether N-12), the 50% inhibitory concentration (IC50) on PADI4 [1] (setting [4]) was above 100000 nM. Besides, at PADI4 [1] (setting [10]), the remaining activity at 0.003 µM stood at 96.7%, the remaining activity at 0.03 µM is 95.6%, the remaining activity at 0.1 µM stood at 99.7% and the remaining activity at 0.3 µM is 103%. On PADI4 [1] (setting [10]), the remaining activity at 3 µM is 101%, the remaining activity at 10 µM was determined as 108%, the remaining activity at 30 µM worked out at 103% and the remaining activity at 50 µM was determined as 107%. For the same compound, the Kd at PADI4 [2] was above 10000 nM.

Values taken from publication PMC11659602, “Discovering covalent cyclic peptide inhibitors of peptidyl arginine deiminase 4 (PADI4) using mRNA-display with a genetically encoded electrophilic warhead” (Communications Chemistry, 2024).
